In PubChem BioAssay AID330 (DTP/NCI, 2004):
“And” between values parts separate entries of the source, which are not always exact repeats. Equal values may be shown once. Inconclusive results and toxic doses are left out. The calls were made as follows: active = survival T/C of 150% or more; inactive = T/C below 125% in these data.

System: P388 leukemia ip, CD2F1 mice, survival T/C
Assay: NCI In Vivo Anticancer Drug Screen. Data for tumor model P388 Leukemia (intraperitoneal) in CD2F1 (CDF1) mice
Settings: endpoint: median survival time, higher = longer survival
In short: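 Mice carrying the transplanted tumor received test compound or vehicle. Survival was recorded in each group, and the value is the treated-group measurement divided by that of the vehicle-treated control group.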

[1] = dose: 50.0 mg/kg/injection, schedule: Q01DX009 (ip), vehicle: saline
[2] = dose: 100.0 mg/kg/injection, schedule: Q01DX009 (ip), vehicle: saline
[3] = dose: 100.0 mg/kg/injection, schedule: Q04DX003 (ip), vehicle: Klucel (hydroxypropylcellulose) (HPC)
[4] = dose: 200.0 mg/kg/injection, schedule: Q04DX003 (ip), vehicle: Klucel (hydroxypropylcellulose) (HPC)
[5] = dose: 100.0 mg/kg/injection, schedule: Q01DX001 (ip), vehicle: Klucel (hydroxypropylcellulose) (HPC)
[6] = dose: 200.0 mg/kg/injection, schedule: Q01DX001 (ip), vehicle: Klucel (hydroxypropylcellulose) (HPC)
[7] = dose: 400.0 mg/kg/injection, schedule: Q01DX001 (ip), vehicle: Klucel (hydroxypropylcellulose) (HPC)
[8] = dose: 50.0 mg/kg/injection, schedule: Q01DX009 (ip), vehicle: saline with Tween-80
[9] = dose: 100.0 mg/kg/injection, schedule: Q01DX009 (ip), vehicle: saline with Tween-80
[10] = dose: 200.0 mg/kg/injection, schedule: Q01DX009 (ip), vehicle: saline with Tween-80
[11] = dose: 25.0 mg/kg/injection, schedule: Q01DX005 (ip), vehicle: Klucel (hydroxypropylcellulose) (HPC)
[12] = dose: 50.0 mg/kg/injection, schedule: Q01DX009 (ip), vehicle: Klucel (hydroxypropylcellulose) (HPC)
[13] = dose: 100.0 mg/kg/injection, schedule: Q01DX009 (ip), vehicle: Klucel (hydroxypropylcellulose) (HPC)
[14] = dose: 200.0 mg/kg/injection, schedule: Q01DX009 (ip), vehicle: Klucel (hydroxypropylcellulose) (HPC)
[15] = dose: 50.0 mg/kg/injection, schedule: Q01DX005 (ip), vehicle: saline with Tween-80
[16] = dose: 100.0 mg/kg/injection, schedule: Q01DX005 (ip), vehicle: saline with Tween-80
[17] = dose: 200.0 mg/kg/injection, schedule: Q01DX005 (ip), vehicle: saline with Tween-80
[18] = dose: 50.0 mg/kg/injection, schedule: Q01DX005 (ip), vehicle: Klucel (hydroxypropylcellulose) (HPC)
[19] = dose: 100.0 mg/kg/injection, schedule: Q01DX005 (ip), vehicle: Klucel (hydroxypropylcellulose) (HPC)
[20] = dose: 60.0 mg/kg/injection, schedule: Q01DX005 (ip), vehicle: saline with Tween-80
[21] = dose: 120.0 mg/kg/injection, schedule: Q01DX005 (ip), vehicle: saline with Tween-80
[22] = dose: 240.0 mg/kg/injection, schedule: Q01DX005 (ip), vehicle: saline with Tween-80
[23] = dose: 50.0 mg/kg/injection, schedule: Q01DX001 (ip), vehicle: saline with Tween-80
[24] = dose: 100.0 mg/kg/injection, schedule: Q01DX001 (ip), vehicle: saline with Tween-80
[25] = dose: 200.0 mg/kg/injection, schedule: Q01DX005 (ip), vehicle: Klucel (hydroxypropylcellulose) (HPC)

Measured: T/C

C[N+](C)(C)CCC(=O)c1ccc(Cl)c(Cl)c1
inactive: dose: 3.13 mg/kg/injection, schedule: Q01DX009 (ip), vehicle: saline 108 % of control | dose: 6.25 mg/kg/injection, schedule: Q01DX009 (ip), vehicle: saline 112 % of control | dose: 12.5 mg/kg/injection, schedule: Q01DX009 (ip), vehicle: saline 108 % of control

COCCC(=NC(C)(C)C)Nc1c(Cl)cccc1Cl
inactive: [1] 110 % of control | [2] 108 % of control

CC12CCC3C(CCC4CC5OC(=O)CC5CC43C)C1CCC2=O (centres undefined)
inactive: dose: 50.0 mg/kg/injection, schedule: Q04DX003 (ip), vehicle: Klucel (hydroxypropylcellulose) (HPC) 102 % of control | [3] 107 % of control | [4] 106 % of control | dose: 400.0 mg/kg/injection, schedule: Q04DX003 (ip), vehicle: Klucel (hydroxypropylcellulose) (HPC) 101 % of control

O=C1CC(=O)N2CCSC2=N1
inactive: dose: 50.0 mg/kg/injection, schedule: Q04DX003 (ip), vehicle: saline with Tween-80 102 % of control | dose: 100.0 mg/kg/injection, schedule: Q04DX003 (ip), vehicle: saline with Tween-80 101 % of control | dose: 200.0 mg/kg/injection, schedule: Q04DX003 (ip), vehicle: saline with Tween-80 102 % of control | dose: 400.0 mg/kg/injection, schedule: Q04DX003 (ip), vehicle: saline with Tween-80 98 % of control

Ic1cc2c(cc1C1CO1)OCO2 (centres undefined)
inactive: [5] 103 % of control | [6] 99 % of control | [7] 96 % of control

CCOC(=O)Nc1nccs1
inactive: dose: 25.0 mg/kg/injection, schedule: Q01DX009 (ip), vehicle: saline with Tween-80 108 % of control | [8] 103 % of control | [9] 102 % of control | [10] 108 % of control

C=C1C(=O)O[C@@H]2[C@@H]3O[C@@](C)(CC[C@H](OC(C)=O)[C@@H]3CO)C[C@@H](OC(=O)/C(=C\C)COC(C)=O)[C@@H]12
inactive: [11] 101 % of control

CCCCCCC(=O)/C=C/c1ccccc1OCOC
inactive: [12] 100 % of control (2×) and 108 % of control | [13] 99 % of control and 100 % of control and 106 % of control | [14] 103 % of control and 111 % of control | dose: 400.0 mg/kg/injection, schedule: Q01DX009 (ip), vehicle: Klucel (hydroxypropylcellulose) (HPC) 117 % of control

COc1ccc(C(=O)N2CC(O)=CC2=O)cc1
inactive: [12] 105 % of control | [13] 107 % of control | [14] 92 % of control

CCC1C(=O)C=C(c2ccccc2)CC1c1ccccc1 (centres undefined)
inactive: [15] 111 % of control | [16] 102 % of control | [17] 93 % of control

COC(=O)/C1=C\CC/C(C(=O)OC)=C\C(=O)CCC1
inactive: [11] 101 % of control | [18] 101 % of control | [19] 103 % of control

C(=NCCN=Cc1cc2c(c3ccccc13)CCCC2)c1cc2c(c3ccccc13)CCCC2
inactive: [15] 96 % of control | [16] 91 % of control | [17] 88 % of control

Cn1c(N)c(C(=O)/C=C/c2ccccc2)c(=O)n(C)c1=O
inactive: dose: 12.5 mg/kg/injection, schedule: Q01DX009 (ip), vehicle: Klucel (hydroxypropylcellulose) (HPC) 99 % of control and 124 % of control | dose: 25.0 mg/kg/injection, schedule: Q01DX009 (ip), vehicle: Klucel (hydroxypropylcellulose) (HPC) 120 % of control and 93 % of control | [13] 93 % of control and 113 % of control and 92 % of control | [14] 116 % of control

O=C1OC(Oc2ccccc2)c2cc3c(cc21)OCO3 (centres undefined)
inactive: [20] 90 % of control | [21] 90 % of control | [22] 99 % of control

NC(CC(=O)c1ccc(O)cc1)C(=O)O (centres undefined)
inactive: [12] 99 % of control | [13] 100 % of control | [14] 92 % of control

O=C(OC1(c2ccc3ccccc3c2)OC(=O)c2ccccc21)c1ccccc1C(=O)c1cccc2ccccc12 (centres undefined)
inactive: [5] 92 % of control | [6] 91 % of control | [7] 91 % of control

CN(C)S(=O)(=O)c1ccccc1N=C=S
inactive: [8] 117 % of control | [9] 117 % of control

Nc1cccc(OCCOc2cccc(S(=O)(=O)F)c2)c1
inactive: [23] 109 % of control | [24] 100 % of control | dose: 200.0 mg/kg/injection, schedule: Q01DX001 (ip), vehicle: saline with Tween-80 100 % of control

O=c1nc2ccccc2c2n1CCN2
inactive: [15] 105 % of control | [16] 101 % of control | [17] 100 % of control

O=C1Oc2ccccc2[C@@H]2[C@H]1[C@@H]1C(=O)Oc3ccccc3[C@@H]12
inactive: [18] 97 % of control | [19] 97 % of control | [25] 100 % of control

C(=Nc1ccccc1)C1=C(Nc2ccccc2)CCC1
inactive: [18] 100 % of control | [19] 100 % of control | [25] 106 % of control

NC(=S)N/N=C/c1cn(-c2ccccc2[N+](=O)[O-])cn1
inactive: [3] 103 % of control | [4] 90 % of control

O=c1c2cc3ccccc3n2c(=O)c2cc3ccccc3n12
inactive: [12] 87 % of control | [13] 91 % of control | [14] 92 % of control

CN(CCN1C(=O)c2cccc3cc(N)cc(c23)C1=O)CCN1C(=O)c2cccc3cc(N)cc(c23)C1=O
inactive: [15] 112 % of control | [16] 106 % of control | [17] 107 % of control

NC(=O)CCNC(=O)OCc1ccccc1
inactive: dose: 12.5 mg/kg/injection, schedule: Q01DX009 (ip), vehicle: distilled water + Tween-80 105 % of control | dose: 25.0 mg/kg/injection, schedule: Q01DX009 (ip), vehicle: distilled water + Tween-80 103 % of control | dose: 50.0 mg/kg/injection, schedule: Q01DX009 (ip), vehicle: distilled water + Tween-80 103 % of control | dose: 100.0 mg/kg/injection, schedule: Q01DX009 (ip), vehicle: distilled water + Tween-80 104 % of control | dose: 200.0 mg/kg/injection, schedule: Q01DX009 (ip), vehicle: distilled water + Tween-80 100 % of control

CC1=NN(c2cc(S(=O)(=O)O)ccc2Cl)C(=O)C1N=Nc1ccccc1 (centres undefined)
inactive: [1] 105 % of control | [2] 89 % of control

Cc1nc(N(C)C)oc(=O)c1Cc1ccccc1
inactive: [20] 102 % of control | [21] 100 % of control | [22] 100 % of control

CC1(C)OC2OC3C(Br)C(=O)OC3C2O1 (centres undefined)
inactive: [20] 90 % of control | [21] 94 % of control | [22] 97 % of control

Cc1cnc2ncn(Cc3c[nH]c(=O)[nH]c3=O)c(=O)c2c1
inactive: dose: 12.5 mg/kg/injection, schedule: Q01DX001 (ip), vehicle: saline with Tween-80 110 % of control | dose: 25.0 mg/kg/injection, schedule: Q01DX001 (ip), vehicle: saline with Tween-80 107 % of control | [23] 104 % of control | [24] 104 % of control

C/C(CC1C(CCO)C1(C)C)=N\NC(N)=O (centres undefined)
inactive: dose: 60.0 mg/kg/injection, schedule: Q01DX005 (ip), vehicle: Klucel (hydroxypropylcellulose) (HPC) 98 % of control | dose: 120.0 mg/kg/injection, schedule: Q01DX005 (ip), vehicle: Klucel (hydroxypropylcellulose) (HPC) 100 % of control | dose: 240.0 mg/kg/injection, schedule: Q01DX005 (ip), vehicle: Klucel (hydroxypropylcellulose) (HPC) 106 % of control

CCC(C)C(NC(=O)C(C)NC(=O)OCc1ccccc1)C(=O)O (centres undefined)
inactive: [15] 101 % of control | [16] 101 % of control | [17] 100 % of control

COCN(C)N=Nc1ccc(C(C)=O)cc1
inactive: [18] 100 % of control | [19] 104 % of control | [25] 121 % of control

CC1NC(=O)C2Cc3ccc(O)c(c3)Oc3cccc(c3)C(O)C(C(=O)N2C)N(C)C(=O)C(C)NC(=O)C(Cc2ccc(O)c(O)c2)N(C)C(=O)C(C)NC1=O (centres undefined)
inactive: dose: 16.0 mg/kg/injection, schedule: Q01DX009 (ip), vehicle: distilled water + Tween-80 112 % of control | dose: 32.0 mg/kg/injection, schedule: Q01DX009 (ip), vehicle: distilled water + Tween-80 112 % of control | dose: 64.0 mg/kg/injection, schedule: Q01DX009 (ip), vehicle: distilled water + Tween-80 122 % of control

Cc1cc(C(C)CC(=O)O)c(C)c(C)c1C (centres undefined)
inactive: [8] 96 % of control | [9] 93 % of control | [10] 108 % of control
